Paper PMC11999280, “Design and screening of novel endosomal escape compounds that enhance functional delivery of oligonucleotides in vitro” (Molecular Therapy. Nucleic Acids, 2025)

Tests used:
Assay type in all cases: cell-based
[1] = tested on: mCherry-GAL9 expressing HepG2 cells; test: GAL9 recruitment assay, HepG2; conditions: calculated mean from >3 independent exp.
Description: (§1) Experiments assessing GAL9 localization as an indicator for endosomal remodeling were performed as previously described[15] using 8× stablemCherry-GAL9 expressing cell lines, SHSY5Y, U2OS, 16HBE, NCI-H358, HuH7, HepG2, HEK293, and HeLa. For mCherry-GAL9 recruitment, 3,000 or 6,500 cells/well (depending upon cell line) were seeded into 384-well CellCarrier Ultra plates 24 h prior to treatment (PerkinElmer, catalog no. 6007558). An Echo 655T acoustic dispenser (Labcyte) was used for EEE dose-response preparation by transferring to the cell plate. At assay endpoints, cells were PBS washed, 4% paraformaldehyde fixed at room temperature […] (VWR, catalog no. 9713.1000), and nuclei stained with PBS +1 μg/mL Hoechst 33342 (Thermo Fisher Scientific, catalog no. H21492).
(§2) Imaging was performed using a spinning-disk confocal microscope (Yokogawa: CV8000) with a ×20w objective (numerical aperture 1.0). Cells and mCherry-GAL9 structure identification and quantification were done using Columbus image-analysis software (PerkinElmer version 2.9.0). Data processing was done using Spotfire (Tibco version 11.4) and Prism (GraphPad version 9.1.0). Image panels were assembled using the FigureJ plugin for FIJI.[43] All mCherry-GAL9 experiments were performed three times (N = 3) with duplicated wells per treatment (n = 2).

[2] = tested on: mCherry-GAL9 expressing HuH7 cells; test: GAL9 recruitment assay, HuH7; conditions: calculated mean from >3 independent exp.
Description: as §1, §2

[3] = tested on: mCherry-GAL9 expressing U2OS cells; test: GAL9 recruitment assay, U2OS; conditions: calculated mean from >3 independent exp.
Description: as §1, §2

[4] = tested on: HeLa_Luc705 cells (pLuc/705 splice-switching reporter); test: Functional 705-SSO delivery, luciferase splice-switching assay; conditions: mean from >3 independent experiments
From the text: Therefore, next, we functionally screened the SSO delivery in the HeLa_Luc705 reporter cell line. HeLa_Luc705 carries a pLuc/705 splice-switching reporter luciferase gene interrupted by a mutated β-globin intron, which creates a preferentially used cryptic 5′ splice site leading to aberrant splicing. Functional SSO delivery masks the cryptic site, redirecting the splicing machinery to the right splicing site, allowing the measurement of luciferase expression (Figure S1).[25]^,[26]^,[27]^,[28] We used SSO transfection with LF2000 as transfection control and the previously published endosomal escape enhancer CMP05 (here, EEE2) as positive control.[15]
For the assessment of functional SSO therapeutics, a HeLa_Luc705 cell line was grown in DMEM media supplemented with 10% fetal bovine serum (FBS). For most treatments, 10,000 cells/well were seeded in a 96-well plate, 24 h pre-incubated with 1- to 2-μM oligonucleotide, and then treated at the described EEE concentration. At 24 h post-treatment, cells were PBS rinsed and collected for further analysis (treatments and incubation times changed accordingly to the experiment design). Luciferase readout was performed as previously described,[15] using a GloMax 96-well plate microplate luminometer (Promega) immediately after adding 30 μL auto-injected luciferin substrate (Promega Firefly Luciferase Assay System; Thermo Scientific, catalog no. 16174) in a white-walled 96-well plate containing 30 μL 0.1% Triton X-100 (Sigma-Aldrich) cell lysed. Photon exposure time and delay were set to 10 and 2 s after injection. LF2000 was used as the transfection reagent control (Thermo Scientific, catalog no. 11668019). For EEE experiments using 1 or 2 μM SSOs, the control was prepared using lipofection with 100–200 nM SSO; this is to avoid complex induced cell toxicity.
705-SSO was purchased from and synthesized by Integrated DNA Technologies. The 705-SSO sequence was previously published, containing 2′-O-methylated bases and only phosphorothioate-saturated backbone linkages were included.[15] The 705-SSO was high-performance liquid chromatography purified, shipped, and stored in IDTE buffer (10 mM Tris, 0.1 mM EDTA).

[5] = tested on: mCherry-GAL9 expressing HeLa cells; test: GAL9 recruitment assay, HeLa; conditions: calculated mean from >3 independent exp.
Description: as §1, §2

[6] = tested on: mCherry-GAL9 expressing 16HBE cells; test: GAL9 recruitment assay, 16HBE; conditions: calculated mean from >3 independent exp.
Description: as §1, §2

[7] = tested on: mCherry-GAL9 expressing NCI-H358 cells; test: GAL9 recruitment assay, NCI-H358; conditions: calculated mean from >3 independent exp.
Description: as §1, §2

[8] = tested on: mCherry-GAL9 expressing SHSY5Y cells; test: GAL9 recruitment assay, SHSY5Y; conditions: calculated mean from >3 independent exp.
Description: as §1, §2

[9] = tested on: mCherry-GAL9 expressing HEK293 cells; test: GAL9 recruitment assay, HEK293; conditions: calculated mean from >3 independent exp.
Description: as §1, §2

[10] = HeLa-Luc705 + 2 µM SSO, EEE 2.5 - 3 µM

SMILES: COc1nn(C2CCN(C(C)C)CC2)cc1Nc1ncc(F)c(-n2ccc3c(C#N)cccc32)n1 [EEE9]
- Gal9 response compared to reference ([1]; EEE 0.31 µM): 0.009
- Gal9 response compared to reference ([1]; EEE 0.62 µM): 0.009
- Gal9 response compared to reference ([1]; EEE 1.25 µM): 0.007
- Gal9 response compared to reference ([1]; EEE 2.5 µM): 0.011
- Gal9 response compared to reference ([1]; EEE 5 µM): 0.060
- Gal9 response compared to reference ([1]; EEE 10 µM): 0.564
- Gal9 response compared to reference ([2]; EEE 0.31 µM): 0.012
- Gal9 response compared to reference ([2]; EEE 0.62 µM): 0.009
- Gal9 response compared to reference ([2]; EEE 1.25 µM): 0.019
- Gal9 response compared to reference ([2]; EEE 2.5 µM): 0.083
- Gal9 response compared to reference ([2]; EEE 5 µM): 0.220
- Gal9 response compared to reference ([2]; EEE 10 µM): 0.366
- Gal9 response compared to reference ([3]; EEE 0.31 µM): 0.012
- Gal9 response compared to reference ([3]; EEE 0.62 µM): 0.013
- Gal9 response compared to reference ([3]; EEE 1.25 µM): 0.018
- Gal9 response compared to reference ([3]; EEE 2.5 µM): 0.055
- Gal9 response compared to reference ([3]; EEE 5 µM): 0.254
- Gal9 response compared to reference ([3]; EEE 10 µM): 0.502
- Luciferase expression compared to reference [4, 10]: 0.692
- Gal9 response compared to reference ([5]; EEE 0.31 µM): 0.005
- Gal9 response compared to reference ([5]; EEE 0.62 µM): 0.005
- Gal9 response compared to reference ([5]; EEE 1.25 µM): 0.007
- Gal9 response compared to reference ([5]; EEE 2.5 µM): 0.110
- Gal9 response compared to reference ([5]; EEE 5 µM): 0.393
- Gal9 response compared to reference ([5]; EEE 10 µM): 0.495
- Gal9 response compared to reference ([6]; EEE 0.31 µM): 0.010
- Gal9 response compared to reference ([6]; EEE 0.62 µM): 0.013
- Gal9 response compared to reference ([6]; EEE 1.25 µM): 0.042
- Gal9 response compared to reference ([6]; EEE 2.5 µM): 0.209
- Gal9 response compared to reference ([6]; EEE 5 µM): 0.533
- Gal9 response compared to reference ([6]; EEE 10 µM): 0.691
- Gal9 response compared to reference ([7]; EEE 0.31 µM): 0.018
- Gal9 response compared to reference ([7]; EEE 0.62 µM): 0.020
- Gal9 response compared to reference ([7]; EEE 1.25 µM): 0.031
- Gal9 response compared to reference ([7]; EEE 2.5 µM): 0.212
- Gal9 response compared to reference ([7]; EEE 5 µM): 0.569
- Gal9 response compared to reference ([7]; EEE 10 µM): 0.627
- Gal9 response compared to reference ([8]; EEE 0.31 µM): 0.013
- Gal9 response compared to reference ([8]; EEE 0.62 µM): 0.016
- Gal9 response compared to reference ([8]; EEE 1.25 µM): 0.117
- Gal9 response compared to reference ([8]; EEE 2.5 µM): 0.756
- Gal9 response compared to reference ([8]; EEE 5 µM): 0.780
- Gal9 response compared to reference ([8]; EEE 10 µM): 0.696
- Gal9 response compared to reference ([9]; EEE 0.31 µM): 0.028
- Gal9 response compared to reference ([9]; EEE 0.62 µM): 0.032
- Gal9 response compared to reference ([9]; EEE 1.25 µM): 0.071
- Gal9 response compared to reference ([9]; EEE 2.5 µM): 0.396
- Gal9 response compared to reference ([9]; EEE 5 µM): 0.712
- Gal9 response compared to reference ([9]; EEE 10 µM): 0.639

SMILES: CCCN1CCC(n2cc(Nc3ncc(F)c(-n4ccc5c(C#N)cccc54)n3)c(OC)n2)CC1 [EEE10]
- Gal9 response compared to reference ([1]; EEE 0.31 µM): 0.008
- Gal9 response compared to reference ([1]; EEE 0.62 µM): 0.007
- Gal9 response compared to reference ([1]; EEE 1.25 µM): 0.007
- Gal9 response compared to reference ([1]; EEE 2.5 µM): 0.008
- Gal9 response compared to reference ([1]; EEE 5 µM): 0.026
- Gal9 response compared to reference ([1]; EEE 10 µM): 0.371
- Gal9 response compared to reference ([2]; EEE 0.31 µM): 0.011
- Gal9 response compared to reference ([2]; EEE 0.62 µM): 0.009
- Gal9 response compared to reference ([2]; EEE 1.25 µM): 0.016
- Gal9 response compared to reference ([2]; EEE 2.5 µM): 0.121
- Gal9 response compared to reference ([2]; EEE 5 µM): 0.252
- Gal9 response compared to reference ([2]; EEE 10 µM): 0.414
- Gal9 response compared to reference ([3]; EEE 0.31 µM): 0.011
- Gal9 response compared to reference ([3]; EEE 0.62 µM): 0.012
- Gal9 response compared to reference ([3]; EEE 1.25 µM): 0.016
- Gal9 response compared to reference ([3]; EEE 2.5 µM): 0.076
- Gal9 response compared to reference ([3]; EEE 5 µM): 0.260
- Gal9 response compared to reference ([3]; EEE 10 µM): 0.512
- Luciferase expression compared to reference [4, 10]: 0.565
- Gal9 response compared to reference ([5]; EEE 0.31 µM): 0.005
- Gal9 response compared to reference ([5]; EEE 0.62 µM): 0.005
- Gal9 response compared to reference ([5]; EEE 1.25 µM): 0.005
- Gal9 response compared to reference ([5]; EEE 2.5 µM): 0.145
- Gal9 response compared to reference ([5]; EEE 5 µM): 0.463
- Gal9 response compared to reference ([5]; EEE 10 µM): 0.588
- Gal9 response compared to reference ([6]; EEE 0.31 µM): 0.010
- Gal9 response compared to reference ([6]; EEE 0.62 µM): 0.011
- Gal9 response compared to reference ([6]; EEE 1.25 µM): 0.028
- Gal9 response compared to reference ([6]; EEE 2.5 µM): 0.183
- Gal9 response compared to reference ([6]; EEE 5 µM): 0.522
- Gal9 response compared to reference ([6]; EEE 10 µM): 0.746
- Gal9 response compared to reference ([7]; EEE 0.31 µM): 0.017
- Gal9 response compared to reference ([7]; EEE 0.62 µM): 0.016
- Gal9 response compared to reference ([7]; EEE 1.25 µM): 0.031
- Gal9 response compared to reference ([7]; EEE 2.5 µM): 0.194
- Gal9 response compared to reference ([7]; EEE 5 µM): 0.633
- Gal9 response compared to reference ([7]; EEE 10 µM): 0.662
- Gal9 response compared to reference ([8]; EEE 0.31 µM): 0.015
- Gal9 response compared to reference ([8]; EEE 0.62 µM): 0.024
- Gal9 response compared to reference ([8]; EEE 1.25 µM): 0.123
- Gal9 response compared to reference ([8]; EEE 2.5 µM): 0.877
- Gal9 response compared to reference ([8]; EEE 5 µM): 0.887
- Gal9 response compared to reference ([8]; EEE 10 µM): 0.717
- Gal9 response compared to reference ([9]; EEE 0.31 µM): 0.023
- Gal9 response compared to reference ([9]; EEE 0.62 µM): 0.026
- Gal9 response compared to reference ([9]; EEE 1.25 µM): 0.051
- Gal9 response compared to reference ([9]; EEE 2.5 µM): 0.379
- Gal9 response compared to reference ([9]; EEE 5 µM): 0.672
- Gal9 response compared to reference ([9]; EEE 10 µM): 0.647

SMILES: COc1nn(C2CCNCC2C)cc1Nc1ncc(F)c(-n2ccc3c(C#N)cccc32)n1 (centres unmarked) [EEE35]
- Luciferase expression compared to reference ([4]; HeLa-Luc705 + 1 µM SSO, EEE 0.5 µM): 1.095
- Luciferase expression compared to reference ([4]; HeLa-Luc705 + 1 µM SSO, EEE 2 µM): 1.804
- Luciferase expression compared to reference ([4]; HeLa-Luc705 + 1 µM SSO, EEE 4 µM): 4.870
- Luciferase expression compared to reference ([4]; HeLa-Luc705 + 1 µM SSO, EEE 5 µM): 9.588
- Luciferase expression compared to reference ([4]; HeLa-Luc705 + 1 µM SSO, EEE 1-1.25 µM): 1.101
- Luciferase expression compared to reference ([4]; HeLa-Luc705 + 1 µM SSO, EEE 2.5 - 3 µM): 2.812
